“And” between values parts separate entries of the source, which are not always exact repeats. Identical values can stand only once. Like-named read-outs stand apart in the source and are kept apart here.
Columns and labels:
[1] = target: T1, recombinant human ERα ligand binding domain (LBD) (Homo sapiens, UniProt P03372); test: ERα binding assay (LanthaScreen TR-FRET competition); conditions: mean ± s.d.; read-out: ERα binding IC50
T1 construct: purchased Invitrogen PV4543
T1 sequence (P03372 311-547 limits assumed): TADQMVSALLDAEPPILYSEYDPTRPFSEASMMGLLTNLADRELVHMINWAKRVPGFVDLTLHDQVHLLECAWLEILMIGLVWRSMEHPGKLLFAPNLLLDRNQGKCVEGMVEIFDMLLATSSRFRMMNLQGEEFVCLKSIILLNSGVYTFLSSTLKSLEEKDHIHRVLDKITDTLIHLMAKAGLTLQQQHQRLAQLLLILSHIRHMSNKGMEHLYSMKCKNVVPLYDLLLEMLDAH
Experimental: The ability of compounds to bind to isolated ERα Ligand binding domain (ERα–LBD (GST)) was assessed in competition assays using a LanthaScreenTM Time-Resolved Fluorescence Resonance Energy Transfer (TR-FRET) detection end-point. For the LanthaScreen TR-FRET endpoint, a suitable fluorophore (Fluormone ES2, Product code P2645) and recombinant human ERα ligand binding domain (LBD) (product code PV4543) were purchased from Invitrogen and used to measure compound binding. A terbium-labelled anti-GST antibody (Product code PV3551) is used to indirectly label the receptor by binding to its GST tag, and competitive binding is detected by a test compounds’ ability to displace the fluorescent ligand resulting in a loss of TR-FRET signal between the Tb-anti-GST antibody and the tracer. The assay was performed with all reagent additions carried out using the Beckman Coulter BioRAPTR FRD microfluidic workstation: […]

[2] = system: PR expression; test: ER agonism: PR expression in Ishikawa cells by western blot; format: cell-based; conditions: for PR expression (% vs 10 nM E2): 100 nM compound, individual replicates; for PR expression in the Ishikawa endometrial cell line: 100 nM, 48 h
Experimental: Fig. 8 Evidence of ER agonism of AZ’6421 and compound 8 in vitro and in vivo. a 100 nM compound or 10 nM estradiol (E2) were incubated with Ishikawa cells for 48 h and lysates measured for PR expression by western blot. b Normalised rat uterine weight shown as % change from respective vehicle control after 4 days dosing. c Representative H&E stained images taken from sections of uterine horn after 4 days of dosing. d Total plasma exposure of AZ’6421 and its metabolite 8 following dosing of 100 mg/kg BID or 30 mg/kg BID AZ’6421. Plasma samples were taken 4 hr after the 4th dose, at the same time as the uterus was weighed and sectioned for H&E staining.
Cells were seeded into 12-well tissue culture-treated plates at 0.5 x 10^6 cells/well in phenol red-free RPMI containing 5% (v/v) charcoal-stripped FBS (F6765, Sigma) and left to adhere overnight. In experiments to detect agonism or for SILAC experiments, FBS was double stripped using activated charcoal. Cells were treated with compound or 0.1% DMSO vehicle control for the times indicated prior to being lysed in Pierce RIPA buffer (Thermo Scientific), supplemented with protease and phosphatase inhibitors. Expression levels of proteins were determined by standard western blotting techniques (BioRad 4%-12% Bis-Tris gels). Antibodies were diluted in 5% milk-PBS-Tween and protein levels were detected using Pierce WestDura chemiluminescent reagents followed by visualisation and quantification on a Syngene ChemiGenius Imager. Where blots were quantified, protein levels were normalised to beta-actin or vinculin control and expressed as % of vehicle control.

[3] = Chromatographic LogD; format: physicochemical; conditions: Waters Acquity BEH C18 column, pH 7.4
Experimental: An HPLC with UV detection using diode array detection over a wavelength range of 210-320 nm and confirmation by electrospray mass spectrometry (pos/neg ionisation) is used to determine the chromatographic LogD of compounds. Test compounds, calibrants, and QC samples are prepared as 10 mM stocks in DMSO and further diluted to a final concentration of 0.6 mM in DMSO. […] The chromatographic system is calibrated using standards with known literature values of octanol-water partition coefficient at pH 7.4 (logD7.4) and retention factors, k’, of calibrants, QCs, and samples calculated using equation: k’=(rt-t0)/t0.

[4] = target: T2, ERα (Homo sapiens, UniProt P03372, D538G); test: CTC174 ex vivo studies, ERα by western blot; format: cell-based; conditions: for ERα % of DMSO control: CTC174 ex vivo; for remaining activity at 1 µM: read-out: ERα levels, % of control
T2 construct: from tissue; host or cells: CTC174 PDX tumours grown in female NSG mice; for the ex vivo work, single cells disaggregated from these tumours
T2 sequence (P03372 1-595 D538G): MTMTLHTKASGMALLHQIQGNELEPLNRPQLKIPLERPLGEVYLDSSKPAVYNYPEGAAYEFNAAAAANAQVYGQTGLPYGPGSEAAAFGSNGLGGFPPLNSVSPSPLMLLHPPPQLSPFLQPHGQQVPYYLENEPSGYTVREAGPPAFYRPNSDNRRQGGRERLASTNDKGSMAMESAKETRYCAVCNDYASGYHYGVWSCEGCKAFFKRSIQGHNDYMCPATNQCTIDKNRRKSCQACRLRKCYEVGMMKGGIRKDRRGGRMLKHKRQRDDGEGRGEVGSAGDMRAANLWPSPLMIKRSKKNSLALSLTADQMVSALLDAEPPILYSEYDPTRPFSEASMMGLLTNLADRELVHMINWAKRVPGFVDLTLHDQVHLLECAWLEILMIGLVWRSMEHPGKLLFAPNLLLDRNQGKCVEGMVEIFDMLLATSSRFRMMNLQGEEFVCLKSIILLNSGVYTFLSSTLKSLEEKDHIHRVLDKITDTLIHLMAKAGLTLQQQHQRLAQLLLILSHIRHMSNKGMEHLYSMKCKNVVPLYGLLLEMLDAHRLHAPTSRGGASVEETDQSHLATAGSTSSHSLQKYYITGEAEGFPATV
Experimental: CTC174 tumours were collected from donor mice, all fat, mouse tissue and necrotic areas removed and the resultant tumour placed in ice cold PBS and kept on ice. Using forceps, the tumour was then minced into small pieces (1-2 mm). Once minced, the tissue was colleced, placed into a gentlMACS C tube with 4.7 mL DMEM/F12 and enzymes H, R and A (Miltenyi Tumour Dissociation Kit), and run on the gentleMACS Octo Dissociator (Program 37C_h_TDK_2). After dissociation, the cell suspension was passed through a […] filter, red blood cell lysis performed using […] lysis buffer, and the resultant suspension centrifuged, resuspended in RPMI (containing 10% charcoal-stripped FCS) and 1x10^6 cell added to each well of a 6 well plate. DMSO control, AZ’3372 or AZ’6421 were added to well at a range of concentrations, left to incubate for 24 hours (37 °C, 5% CO2) and then samples prepared for western blot and ERα levels determined as described above.

[5] = reverse-phase HPLC, read-out: chrom LogD
[6] = reversed-phase HPLC, Table 2 source data, read-out: ChromLogD

| Compound | IC50 [1] [nM] | PR expression (% vs 10 nM E2) ([2]; listed as AZ'6421) | PR expression in the Ishikawa endometrial cell line [2] | chromatographic logD [3, 5] | chromatographic logD [3, 6] | ERα % of DMSO control ([4]; 1 nM, 24 hours) [%] | ERα % of DMSO control ([4]; 10 nM, 24 hours) [%] | ERα % of DMSO control ([4]; 30 nM, 24 hours) [%] | ERα % of DMSO control ([4]; 100 nM, 24 hours) [%] | ERα % of DMSO control ([4]; 300 nM, 24 hours) [%] | ERα % of DMSO control ([4]; 1000 nM, 24 hours) [%] | ERα degradation ([4]; CTC174 cells ex vivo, 24 hours, 10 nM and above) | remaining activity at 1 µM [4] [%] | PR expression (% vs 10 nM E2) [2] | remaining activity at 1 µM ([4]; 1000 nM, CTC174 cells ex vivo (Fig. 6f)) [%] |
| --- | --- | --- | --- | --- | --- | --- | --- | --- | --- | --- | --- | --- | --- | --- | --- |
| Cc1ncsc1-c1ccc(CNC(=O)[C@@H]2C[C@@H](O)CN2C(=O)[C@@H](NC(=O)COCCCOCCCOc2cc(F)c([C@@H]3c4[nH]c5ccccc5c4C[C@@H](C)N3CC(C)(C)F)c(F)c2)C(C)(C)C)cc1 [Compound 5] | < 0.6 | 0.39% and 0.32% | failed to induce PR expression | 6.6 ± 0.4 | 6.6 | 20.3 | 12.0 | 4.1 | 4.2 | 3.9 | 3.6 | approximately 90% | < 1 |  |  |
| C[C@@H]1Cc2c([nH]c3ccccc23)[C@@H](c2c(F)cc(OCCC(=O)O)cc2F)N1CC(C)(C)F [Compound 8] | < 0.5 |  | induced PR expression to a similar extent as AZD9496 | 3.8 | 3.8 |  |  |  |  |  |  |  |  | 4.18% and 6.31% | 42 |

— article PMC11091220, “Metabolism-driven in vitro/in vivo disconnect of an oral ERɑ VHL-PROTAC” (Communications Biology, 2024)
